Source: PubChem BioAssay AID2060883 (Molecular Pharmacology Branch, DTP, NCI, 2025)
pIC50: −log10 of the molar value. One block for each compound: values may come before it.

Test system: 843782-103-R-J1-PDC complex spheroid viability
Test: Anticancer human tumor 843782-103-R-J1-PDC patient-derived lung adenocarcinoma cell line growth inhibition [RAS]
Details: for pIC50: curve of first compound; for viability, T/C: stronger effect = lower value
In short: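 Tumour cells grown as complex spheroids with HUVEC endothelial cells and mesenchymal stem cells, treated with RAS pathway inhibitor combinations. Each agent spans half-log steps from near clinical Cmax, or 10 microM where Cmax is unknown.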

[1] = second compound 0.000949 µM, first compound 0.0316 µM
[2] = second compound 0.000949 µM, first compound 0.1 µM
[3] = second compound 0.000949 µM, first compound 0.316 µM
[4] = second compound 0.000949 µM, first compound 1 µM
[5] = second compound 0.003 µM, first compound 0.0316 µM
[6] = second compound 0.003 µM, first compound 0.1 µM
[7] = second compound 0.003 µM, first compound 0.316 µM
[8] = second compound 0.003 µM, first compound 1 µM
[9] = second compound 0.00949 µM, first compound 0.0316 µM
[10] = second compound 0.00949 µM, first compound 0.1 µM
[11] = second compound 0.00949 µM, first compound 0.316 µM
[12] = second compound 0.00949 µM, first compound 1 µM
[13] = second compound 0.03 µM, first compound 0.0316 µM
[14] = second compound 0.03 µM, first compound 0.1 µM
[15] = second compound 0.03 µM, first compound 0.316 µM
[16] = second compound 0.03 µM, first compound 1 µM
[17] = second compound 0.0949 µM, first compound 0.0316 µM
[18] = second compound 0.0949 µM, first compound 0.1 µM
[19] = second compound 0.0949 µM, first compound 0.316 µM
[20] = second compound 0.0949 µM, first compound 1 µM
[21] = second compound 0.3 µM, first compound 0.0316 µM
[22] = second compound 0.3 µM, first compound 0.1 µM
[23] = second compound 0.3 µM, first compound 0.316 µM
[24] = second compound 0.3 µM, first compound 1 µM
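Also: viability read after seven days of compound exposure.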

pIC50 (second compound 0.000949 µM): > 7.50
pIC50 (second compound 0.003 µM): > 7.50
pIC50 (second compound 0.00949 µM): > 7.50
pIC50 (second compound 0.03 µM): > 7.50
pIC50 (second compound 0.0949 µM): > 7.50
pIC50 (second compound 0.3 µM): > 7.50
SMILES: CC(=O)OC12COC1CC(O)C1(C)C(=O)C(O)C3=C(C)C(OC(=O)C(O)C(NC(=O)OC(C)(C)C)c4ccccc4)CC(O)(C(OC(=O)c4ccccc4)C21)C3(C)C (stereo unspecified) + CCn1c(-c2cccnc2C(C)OC)c2c3cc(ccc31)N1CCOC(CC(NC(=O)C(C(C)C)N(C)C(=O)C3(F)CCN(C(=O)C#CC(C)(C)N(C)C)CC3)C(=O)N3CCCC(N3)C(=O)OCC(C)(C)C2)C1
viability, T/C [1]: 4.08%
viability, T/C [2]: 5.48%
viability, T/C [3]: 6.81%
viability, T/C [4]: 5.51%
viability, T/C (second compound 0.000949 µM, first compound 3.16 µM): 7.48%
viability, T/C (second compound 0.000949 µM, first compound 10 µM): 11.2%
viability, T/C [5]: 5.53%
viability, T/C [6]: 7.6%
viability, T/C [7]: 7.77%
viability, T/C [8]: 6.28%
viability, T/C (second compound 0.003 µM, first compound 3.16 µM): 6.75%
viability, T/C (second compound 0.003 µM, first compound 10 µM): 9.92%
viability, T/C [9]: 5.3%
viability, T/C [10]: 8.65%
viability, T/C [11]: 9.68%
viability, T/C [12]: 7.03%
viability, T/C (second compound 0.00949 µM, first compound 3.16 µM): 10%
viability, T/C (second compound 0.00949 µM, first compound 10 µM): 9.14%
viability, T/C [13]: 5.25%
viability, T/C [14]: 7.67%
viability, T/C [15]: 6.65%
viability, T/C [16]: 8.38%
viability, T/C (second compound 0.03 µM, first compound 3.16 µM): 9.51%
viability, T/C (second compound 0.03 µM, first compound 10 µM): 12.3%
viability, T/C [17]: 8.61%
viability, T/C [18]: 7.03%
viability, T/C [19]: 8.34%
viability, T/C [20]: 7.78%
viability, T/C (second compound 0.0949 µM, first compound 3.16 µM): 10.6%
viability, T/C (second compound 0.0949 µM, first compound 10 µM): 9.37%
viability, T/C [21]: 3.84%
viability, T/C [22]: 5.17%
viability, T/C [23]: 6.69%
viability, T/C [24]: 9.62%
viability, T/C (second compound 0.3 µM, first compound 3.16 µM): 8.58%
viability, T/C (second compound 0.3 µM, first compound 10 µM): 9.58%

pIC50 (second compound 0.000949 µM): 8.83
pIC50 (second compound 0.003 µM): 8.84
pIC50 (second compound 0.00949 µM): 8.90
pIC50 (second compound 0.03 µM): 8.90
pIC50 (second compound 0.0949 µM): 8.84
pIC50 (second compound 0.3 µM): 8.91
SMILES: CCc1c2c(nc3ccc(O)cc13)-c1cc3c(c(=O)n1C2)COC(=O)[C@]3(O)CC + CCn1c(-c2cccnc2C(C)OC)c2c3cc(ccc31)N1CCOC(CC(NC(=O)C(C(C)C)N(C)C(=O)C3(F)CCN(C(=O)C#CC(C)(C)N(C)C)CC3)C(=O)N3CCCC(N3)C(=O)OCC(C)(C)C2)C1
viability, T/C (second compound 0.000949 µM, first compound 0.000949 µM): 67.3%
viability, T/C (second compound 0.000949 µM, first compound 0.003 µM): 23.5%
viability, T/C (second compound 0.000949 µM, first compound 0.00949 µM): 6.26%
viability, T/C (second compound 0.000949 µM, first compound 0.03 µM): 2.82%
viability, T/C (second compound 0.000949 µM, first compound 0.0949 µM): 1.64%
viability, T/C (second compound 0.000949 µM, first compound 0.3 µM): 1.49%
viability, T/C (second compound 0.003 µM, first compound 0.000949 µM): 63.3%
viability, T/C (second compound 0.003 µM, first compound 0.003 µM): 27%
viability, T/C (second compound 0.003 µM, first compound 0.00949 µM): 5.6%
viability, T/C (second compound 0.003 µM, first compound 0.03 µM): 2.52%
viability, T/C (second compound 0.003 µM, first compound 0.0949 µM): 1.9%
viability, T/C (second compound 0.003 µM, first compound 0.3 µM): 1.58%
viability, T/C (second compound 0.00949 µM, first compound 0.000949 µM): 59.1%
viability, T/C (second compound 0.00949 µM, first compound 0.003 µM): 22.9%
viability, T/C (second compound 0.00949 µM, first compound 0.00949 µM): 6.03%
viability, T/C (second compound 0.00949 µM, first compound 0.03 µM): 2.26%
viability, T/C (second compound 0.00949 µM, first compound 0.0949 µM): 1.84%
viability, T/C (second compound 0.00949 µM, first compound 0.3 µM): 2.05%
viability, T/C (second compound 0.03 µM, first compound 0.000949 µM): 59.7%
viability, T/C (second compound 0.03 µM, first compound 0.003 µM): 21.9%
viability, T/C (second compound 0.03 µM, first compound 0.00949 µM): 3.99%
viability, T/C (second compound 0.03 µM, first compound 0.03 µM): 2.11%
viability, T/C (second compound 0.03 µM, first compound 0.0949 µM): 1.92%
viability, T/C (second compound 0.03 µM, first compound 0.3 µM): 1.55%
viability, T/C (second compound 0.0949 µM, first compound 0.000949 µM): 68.9%
viability, T/C (second compound 0.0949 µM, first compound 0.003 µM): 18.6%
viability, T/C (second compound 0.0949 µM, first compound 0.00949 µM): 3.32%
viability, T/C (second compound 0.0949 µM, first compound 0.03 µM): 1.45%
viability, T/C (second compound 0.0949 µM, first compound 0.0949 µM): 1.1%
viability, T/C (second compound 0.0949 µM, first compound 0.3 µM): 1.93%
viability, T/C (second compound 0.3 µM, first compound 0.000949 µM): 59.3%
viability, T/C (second compound 0.3 µM, first compound 0.003 µM): 17.8%
viability, T/C (second compound 0.3 µM, first compound 0.00949 µM): 3.68%
viability, T/C (second compound 0.3 µM, first compound 0.03 µM): 2.01%
viability, T/C (second compound 0.3 µM, first compound 0.0949 µM): 1.36%
viability, T/C (second compound 0.3 µM, first compound 0.3 µM): 1.25%

pIC50 (second compound 0.000949 µM): 7.96
pIC50 (second compound 0.003 µM): 7.78
pIC50 (second compound 0.00949 µM): 7.88
pIC50 (second compound 0.03 µM): 7.78
pIC50 (second compound 0.0949 µM): 7.77
pIC50 (second compound 0.3 µM): 7.84
SMILES: Nc1ccn(C2OC(CO)C(O)C2(F)F)c(=O)n1 (stereo unspecified) + CCn1c(-c2cccnc2C(C)OC)c2c3cc(ccc31)N1CCOC(CC(NC(=O)C(C(C)C)N(C)C(=O)C3(F)CCN(C(=O)C#CC(C)(C)N(C)C)CC3)C(=O)N3CCCC(N3)C(=O)OCC(C)(C)C2)C1
viability, T/C (second compound 0.000949 µM, first compound 0.00316 µM): 70.1%
viability, T/C (second compound 0.000949 µM, first compound 0.01 µM): 52%
viability, T/C [1]: 22.1%
viability, T/C [2]: 2.91%
viability, T/C [3]: 1.53%
viability, T/C [4]: 1.52%
viability, T/C (second compound 0.003 µM, first compound 0.00316 µM): 77.5%
viability, T/C (second compound 0.003 µM, first compound 0.01 µM): 72%
viability, T/C [5]: 21.7%
viability, T/C [6]: 2.04%
viability, T/C [7]: 1.96%
viability, T/C [8]: 2.38%
viability, T/C (second compound 0.00949 µM, first compound 0.00316 µM): 73.3%
viability, T/C (second compound 0.00949 µM, first compound 0.01 µM): 59.4%
viability, T/C [9]: 18.9%
viability, T/C [10]: 2.07%
viability, T/C [11]: 1.82%
viability, T/C [12]: 1.89%
viability, T/C (second compound 0.03 µM, first compound 0.00316 µM): 72.4%
viability, T/C (second compound 0.03 µM, first compound 0.01 µM): 74.5%
viability, T/C [13]: 21.1%
viability, T/C [14]: 2.07%
viability, T/C [15]: 1.99%
viability, T/C [16]: 1.85%
viability, T/C (second compound 0.0949 µM, first compound 0.00316 µM): 85.6%
viability, T/C (second compound 0.0949 µM, first compound 0.01 µM): 69.9%
viability, T/C [17]: 26.4%
viability, T/C [18]: 2.27%
viability, T/C [19]: 1.51%
viability, T/C [20]: 1.37%
viability, T/C (second compound 0.3 µM, first compound 0.00316 µM): 70.4%
viability, T/C (second compound 0.3 µM, first compound 0.01 µM): 62.7%
viability, T/C [21]: 21.8%
viability, T/C [22]: 2.7%
viability, T/C [23]: 1.81%
viability, T/C [24]: 1.46%
